One molecule from publication PMC8975999, “Inhibition of RIPK1 by ZJU-37 promotes oligodendrocyte progenitor proliferation and remyelination via NF-κB pathway” (Cell Death Discovery, 2022) can be followed below.

SMILES strings stand for the structures.

The experiment concerns the target T1, RIPK1 (receptor interacting serine/threonine protein kinase 1) (Homo sapiens, UniProt Q13546).
T1 construct: Flag-RIPK1 immunoprecipitated from HEK293T cells
T1 sequence (Q13546 1-671): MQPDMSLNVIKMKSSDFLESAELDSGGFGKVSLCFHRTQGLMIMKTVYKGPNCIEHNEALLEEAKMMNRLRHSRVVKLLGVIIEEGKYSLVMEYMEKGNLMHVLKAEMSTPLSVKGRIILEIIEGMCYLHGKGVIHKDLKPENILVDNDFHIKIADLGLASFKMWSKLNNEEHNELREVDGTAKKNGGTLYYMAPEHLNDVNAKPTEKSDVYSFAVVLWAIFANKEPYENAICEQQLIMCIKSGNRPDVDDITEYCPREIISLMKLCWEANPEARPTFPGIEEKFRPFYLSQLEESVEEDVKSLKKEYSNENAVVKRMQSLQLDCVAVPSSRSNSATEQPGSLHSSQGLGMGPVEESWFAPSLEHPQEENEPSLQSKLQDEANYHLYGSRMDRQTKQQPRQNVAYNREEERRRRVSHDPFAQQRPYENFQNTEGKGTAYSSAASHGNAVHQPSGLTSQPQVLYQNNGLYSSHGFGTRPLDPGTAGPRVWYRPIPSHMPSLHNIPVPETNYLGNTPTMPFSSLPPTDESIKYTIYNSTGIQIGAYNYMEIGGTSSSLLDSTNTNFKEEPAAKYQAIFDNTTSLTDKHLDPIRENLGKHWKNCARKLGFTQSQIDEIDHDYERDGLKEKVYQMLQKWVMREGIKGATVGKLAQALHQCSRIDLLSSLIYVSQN
Briefly: in vitro kinase assay on immunoprecipitated Flag-RIPK1 (Kinase-Glo; p-S166 western blot). It counts as biochemical. (Kinase-Glo measures the ATP left after a reaction by luminescence.)

One may read the IC50 as the concentration that gives 50% inhibition. A high value points to weaker potency. Regarding `CN1C(=O)[C@@H](Cc2c[nH]c3c(Cl)c(F)ccc23)N(C=O)C1=O` [ZJU-37], half-maximal inhibition (IC50) was put at 0.366 µM.
